{"source": "paper PMC8012336", "about": "“An automated and high-throughput-screening compatible pluripotent stem cell-based test platform for developmental and reproductive toxicity assessment of small molecule compounds” (Cell Biology and Toxicology, 2020)", "key": {"[1]": {"tested_on": "HDFf (human dermal fibroblasts of fetal origin)", "experiment": "Manual human EST cytotoxicity assay, CellTiter-Glo, 5 d", "method": "(§1) The cytotoxicity assessment with a reduced assay time of 5 days combined with either NADH- or ATP-based detection was also carried out with human induced pluripotent stem cells (hiPSCs). […] Furthermore, differences in the cytotoxicity effects between the hiPSCs and HDFfs were more pronounced than in the mouse cells. Similar to the cytotoxicity-based assay the overall variance in the data is reduced when viability data was obtained by an ATP-based read-out.\n(§2) 96-well cell culture plates were coated with gelatin (0.1%) before plating mESC-D3. All peripheral wells of the assay plate were filled with 200 μl growth media. In order to assess compound toxicity on mESC-D3 and NIH/3T3 cells, cell suspensions of NIH/3T3, and mESC-D3 were prepared in growth media (1 × 10^4 cells/ml) and were transferred to all remaining wells (50 μl/well). A 7-point dilution series in growth media was prepared for each test compound and was transferred to the assay plate 2 h after cell seeding (150 μl/well). Afterward, the cells were incubated in a humidified atmosphere at 37 °C and 5% CO2. Three and 5 days after seeding the cell supernatant was replaced by freshly prepared compound solution (200 μl/well). Seven days after seeding the assay plate was taken out of the incubator and located at room temperature for 10 min, before cell supernatant was aspirated (80 μl/well) and CellTiter-Glo® reagent was dispensed (50 μl/well). The assay plate was placed on a shaker for 1 min and after another 10 min incubation at room temperature in the dark the luminescence signal was detected on a plate reader.\n(§3) Figure S1: Step-wise evolution of the cytotoxicity assay towards the use of human cell lines. Related to Figure 2. Cytotoxicity assays were carried out with two compound sets on hiPSC line ZIPi013-E and HDFf, from which they were derived. […] A) 5 day MTT assay and manual handling. B) As in A), but using CellTiter-Glo® viability assay. All points in the graph represent the mean of 6 individual data points, including the standard error."}, "[2]": {"tested_on": "hiPSC line ZIPi013-E", "experiment": "Manual human EST cytotoxicity assay, CellTiter-Glo, 5 d", "method": "as §1, §2, §3"}}}
{"smiles": "NC(=O)NO", "note": "[Hydroxyurea, hydroxyurea]", "values": [{"measurement": "Cytotoxicity assay CTG, 5 d IC50 HDFf", "setting": "[1]", "value": 30.15, "unit": "µg/mL"}, {"measurement": "Cytotoxicity assay CTG, 5 d IC50 ZIPi013-E", "setting": "[2]", "value": 0.8652, "unit": "µg/mL"}]}
